Measured values from patent US20180353462A1, “[…] AGENTS […] FLAVONOID DERIVATIVES TARGETING KINASES, SIRTUINS AND ONCOGENIC AGENTS FOR THE TREATMENT OF CANCERS” (priority 2015, published 2018).

What was measured:
KIT(V559D) = biological target: T1, KIT(V559D) (Homo sapiens, UniProt P10721, V559D); experiment: Kinase competition binding assay, KIT(V559D); conditions: Table 1 kinase panel
T1 construct: made in house
Procedure: (§1) Cannabis flavonoids and their analogs were subjected to kinase inhibition assay. The compounds were first screened at a single concentration of 10 μM in the primary assay. […]. To determine the kd or IC50 values, competition binding assays were established, authenticated and executed as described previously. Fabian et al., “A Small Molecule-Kinase Interaction Map For Clinical Kinase Inhibitors.”, Nat Biotechnol, 23(3):329-36, Epub (2005). See also, Karaman et al., “A Quantitative Analysis Of Kinase Inhibitor Selectivity”, Nat. Biotechnol. […] For most assays, kinases were fused to T7 phage strains (Fabian, supra) and for the other assays, kinases were produced in HEK-293 cells after which they were tagged with DNA for quantitative PCR detection. In general, full-length constructs were used for small, single domain kinases, and catalytic domain constructs for large multi-domain kinases. The binding assays utilized streptavidin-coated magnetic beads treated with biotinylated small molecule ligands for 30 minutes at room temperature which generated affinity resins for the kinase assays. The liganded beads were blocked with excess biotin and washed with blocking buffer (SeaBlock (Pierce), 1% BSA, 0.05% Tween 20, 1 mM DTT) to remove unbound ligand and to reduce non-specific phage binding. […] Test compounds were prepared as 40× stocks in 100% DMSO and diluted directly into the assay (Final DMSO concentration=2.5%). All reactions were performed in polypropylene 384-well plates in a final volume of 0.04 ml. […] The beads were then re-suspended in elution buffer (1×PBS, 0.05% Tween 20, 0.5 μM non-biotinylated affinity ligand) and incubated at room temperature with shaking for 30 minutes. The kinase concentration in the eluates was measured by quantitative PCR. An illustration of the kinase interaction process is presented below. Kd/IC50 values were determined using a standard dose response curve using the hill equation. Curves were fitted using a non-linear least square fit with the Levenberg-Marquardt algorithm.
(§2) The compound(s) were screened at 10 μM and results for primary screen binding interactions are reported as ‘% Ctrl’, where lower numbers indicate stronger hits in the matrix.

BIKE = biological target: T2, BIKE (Homo sapiens, UniProt Q9NSY1); experiment: Kinase competition binding assay, BIKE; conditions: Table 1 kinase panel
T2 construct: made in house
Procedure: as §1, §2

PDGFRB = biological target: T3, PDGFRB (Homo sapiens, UniProt P09619); experiment: Kinase competition binding assay, PDGFRB; conditions: Table 1 kinase panel
T3 construct: catalytic domain constructs for large multi-domain kinases; T7 phage fusion (most assays) or DNA tag for qPCR (HEK-293-made kinases); made in house
Procedure: as §1, §2

CK2a2 = biological target: T4, CK2a2 (Homo sapiens, UniProt P19784); experiment: Kinase competition binding assay, CK2a2; conditions: Table 1 kinase panel
T4 construct: made in house
Procedure: as §1, §2

U87 (Glioma) = experiment: WST-1 anticancer cell proliferation assay, U87; assay type: cell-based; conditions: 72 hours
Procedure: Bioactivity of the above-described compounds has been verified by an anticancer cell proliferation assay using the WST-1 (4-[3-(4-iodophenyl)-2-(4-nitrophenyl)-2H-5-tetrazolio]-1, 3-benzene disulfonate) colorimetric assay by Roche Life Sciences®. Anticancer activity was tested against several standard cancer cell lines including brain, breast, Kaposi sarcoma, leukemia, lung, melanoma, tenosynovial giant cell tumor, ovarian, pancreatic, colon and prostate cancer. Cells were trypsinized and plated into 96 well plates in 50 μl of media and incubated overnight. The next day approximately 18 hours after plating, 50 μl of media containing the required flavonoid-based pharmaceutical composition was added per well. Cells were plated at a density so that 72 hours post drug addition, the cells will be in log phase (500)-2000 cells/well). The compounds and extracts were solubilized in Dimethyl sulfoxide (DMSO). The cells are allowed to proliferate for 72 hours 37° C. in humidified atmosphere of 5% CO2. The experiment is terminated using WST-1 (Roche®) 10 μl per well and absorbance is read at 450 nm %690 nm. The effect of drugs on growth is assessed as percent of cell viability. The IC50 values were determined from the extract dose versus control growth curves using Graphpad Prism® software. All experiments were carried out in duplicate and the mean results determined.

PIK3CA(1800L) = biological target: T5, PIK3CA(1800L) (Homo sapiens, UniProt P42336, I800L); experiment: Kinase competition binding assay, PIK3CA(1800L); conditions: Table 1 kinase panel
T5 construct: T7 phage fusion (most assays) or DNA tag for qPCR (HEK-293-made kinases); made in house
Procedure: as §1, §2

SIRT-3 = biological target: T6, SIRT-3 (Homo sapiens, UniProt Q9NTG7); experiment: Inhibition of sirtuins, SIRT-3; assay type: biochemical; conditions: Table 3 SIRT
T6 sequence (Q9NTG7 1-399): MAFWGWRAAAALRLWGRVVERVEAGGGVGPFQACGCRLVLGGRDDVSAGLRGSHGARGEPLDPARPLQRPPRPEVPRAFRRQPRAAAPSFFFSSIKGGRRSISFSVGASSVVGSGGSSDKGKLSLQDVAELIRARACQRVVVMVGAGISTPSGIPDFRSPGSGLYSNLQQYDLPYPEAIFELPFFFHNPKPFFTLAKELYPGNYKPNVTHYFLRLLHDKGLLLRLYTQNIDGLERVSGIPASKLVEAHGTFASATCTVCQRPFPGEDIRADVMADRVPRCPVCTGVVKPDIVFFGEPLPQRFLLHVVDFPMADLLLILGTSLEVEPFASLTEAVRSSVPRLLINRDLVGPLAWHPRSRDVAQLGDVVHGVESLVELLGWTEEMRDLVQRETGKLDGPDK
Excerpt: Inhibition of Sirtuins, Matrix Metalloproteinase, Bromodomains was Also Confirmed Using Standard Protocols and the Results are Present in Table 2.

PASK = biological target: T7, PASK (Homo sapiens, UniProt Q96RG2); experiment: Kinase competition binding assay, PASK; conditions: Table 1 kinase panel
T7 construct: made in house
Procedure: as §1, §2

DYRK1B = biological target: T8, DYRK1B (Homo sapiens, UniProt Q9Y463); experiment: Kinase competition binding assay, DYRK1B; conditions: Table 1 kinase panel
T8 construct: made in house
Procedure: as §1, §2

KIT = biological target: T9, KIT (Homo sapiens, UniProt P10721); experiment: Kinase competition binding assay, KIT; conditions: Table 1 kinase panel
T9 construct: made in house
Procedure: as §1, §2

Aurora A = biological target: T10, Aurora A (Homo sapiens, UniProt O14965); experiment: Kinase competition binding assay, Aurora A; conditions: Table 1 kinase panel
T10 construct: made in house
T10 sequence (O14965 1-403): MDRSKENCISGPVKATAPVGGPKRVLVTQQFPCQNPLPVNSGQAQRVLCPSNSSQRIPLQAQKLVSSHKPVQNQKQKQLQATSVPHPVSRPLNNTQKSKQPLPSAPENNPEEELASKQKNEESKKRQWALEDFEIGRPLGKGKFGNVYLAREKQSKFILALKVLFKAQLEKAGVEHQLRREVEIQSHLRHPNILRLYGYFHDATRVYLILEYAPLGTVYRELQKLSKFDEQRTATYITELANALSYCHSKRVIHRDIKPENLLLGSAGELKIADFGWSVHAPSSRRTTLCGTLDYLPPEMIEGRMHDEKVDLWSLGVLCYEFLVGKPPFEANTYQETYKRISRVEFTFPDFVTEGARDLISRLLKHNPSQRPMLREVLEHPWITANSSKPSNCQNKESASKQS
Procedure: as §1, §2

PDGFRa = biological target: T11, PDGFRa (Homo sapiens, UniProt P16234); experiment: Kinase competition binding assay, PDGFRa; conditions: Table 1 kinase panel
T11 construct: catalytic domain constructs for large multi-domain kinases; T7 phage fusion (most assays) or DNA tag for qPCR (HEK-293-made kinases); made in house
Procedure: Cannabis flavonoids and their analogs were subjected to kinase inhibition assay. The compounds were first screened at a single concentration of 10 μM in the primary assay. […]. To determine the kd or IC50 values, competition binding assays were established, authenticated and executed as described previously. Fabian et al., “A Small Molecule-Kinase Interaction Map For Clinical Kinase Inhibitors.”, Nat Biotechnol, 23(3):329-36, Epub (2005). See also, Karaman et al., “A Quantitative Analysis Of Kinase Inhibitor Selectivity”, Nat. Biotechnol. […] For most assays, kinases were fused to T7 phage strains (Fabian, supra) and for the other assays, kinases were produced in HEK-293 cells after which they were tagged with DNA for quantitative PCR detection. In general, full-length constructs were used for small, single domain kinases, and catalytic domain constructs for large multi-domain kinases. The binding assays utilized streptavidin-coated magnetic beads treated with biotinylated small molecule ligands for 30 minutes at room temperature which generated affinity resins for the kinase assays. The liganded beads were blocked with excess biotin and washed with blocking buffer (SeaBlock (Pierce), 1% BSA, 0.05% Tween 20, 1 mM DTT) to remove unbound ligand and to reduce non-specific phage binding. […] Test compounds were prepared as 40× stocks in 100% DMSO and diluted directly into the assay (Final DMSO concentration=2.5%). All reactions were performed in polypropylene 384-well plates in a final volume of 0.04 ml. […] The beads were then re-suspended in elution buffer (1×PBS, 0.05% Tween 20, 0.5 μM non-biotinylated affinity ligand) and incubated at room temperature with shaking for 30 minutes. The kinase concentration in the eluates was measured by quantitative PCR. An illustration of the kinase interaction process is presented below. Kd/IC50 values were determined using a standard dose response curve using the hill equation. Curves were fitted using a non-linear least square fit with the Levenberg-Marquardt algorithm. […]

Compound | IC50 (KIT(V559D)) | IC50 (BIKE) | IC50 (PDGFRB) | IC50 (CK2a2) | IC50 (U87 (Glioma)) | IC50 (PIK3CA(1800L)) | IC50 (SIRT-3) | IC50 (PASK) | IC50 (DYRK1B) | IC50 (KIT) | IC50 (Aurora A) | IC50 (PDGFRa)
COc1cc(-c2cc(=O)c3c(O)c(C/C=C(\C)CCC=C(C)C)c(O)cc3o2)ccc1O [FBL-03A] | 200 nM | > 20000 nM | 330 nM | 350 nM | 34 µM | > 20000 nM | 94.9 µM | > 20000 nM | > 20000 nM | 350 nM | 730 nM | 
COc1cc(-c2cc(=O)c3c(O)cc(O)c(C/C=C(\C)CCC=C(C)C)c3o2)ccc1O [FBL-03C] | > 1000 nM | 21 nM | > 1000 nM | 19 nM | 12.5 µM | 780 nM | 65.4 µM | > 20000 nM | 6400 nM | > 1000 nM |  | 
COc1ccc(-c2cc(=O)c3c(O)c(C/C=C(\C)CCC=C(C)C)c(O)cc3o2)cc1OC [FBL-03D] | > 30000 nM | > 30000 nM | > 30000 nM | > 30000 nM |  | > 30000 nM |  | > 30000 nM | > 30000 nM | > 30000 nM | > 30000 nM | > 30000 nM
COc1cc(-c2cc(=O)c3c(O)c(CC=C(C)C)c(O)cc3o2)ccc1O [FBL-03B] | < 1000 nM | > 20000 nM | 1160 nM | 477 nM | 6.2 µM |  | 77 µM | 2060 nM | 1670 nM | < 1000 nM | 12 nM | 982 nM
COc1cc(-c2cc(=O)c3c(O)cc(O)c(CC=C(C)C)c3o2)ccc1O [FBL-03G] | < 1000 nM | > 20000 nM | 3310 nM | 9.7 nM | 5.46 µM | > 20000 nM | 66.4 µM | 116 nM | 22.8 nM | < 1000 nM | 1090 nM | 5920 nM
